Test results: patent US6506928B1, “Dendrimeric fullerene derivatives, process for their preparation, and use as neuroprotectants” (Siemens Axiva GmbH & Co. KG, priority 1998, dated 2003)
Converted amounts (≈) assume the structure as drawn.

Columns and labels:
physchem = experiment: physchem
Description: The dendrimer fullerene 1 of second generation [18-cascade:methano-C60-fullerene[2]:(2-aza-7-oxa-3,8-dioxooctylidyne):(2-aza-3-oxopentylidyne):propanoic acid] (cf. preparation example 1) is prepared (Scheme 3) analogously to the synthesis of the derivative of first generation 8 shown in Scheme 2. As in the first case, the tert-butyl-protected γ-aminotriscarboxylic acid 3 is reacted with the appropriate nitrotriscarboxylic acid 9, whose tert-butyl ester is the synthesis precursor of 3 (15, 16), using DCC in the presence of 1HO-BT and subsequent reduction with hydrogen to the dendron 10 of second generation [9-cascade:aminomethane[3]:(2-aza-3-oxopentylidyne):tert-butyl propanoate]. […] The analogous removal of the protective groups leads to the dendrimer fullerene 1 of the second generation.

apoptotic neural death = details: induced by serum withdrawal or exposure of Aβ1-42 protein; literature /12/; cited from earlier work

Compound | solubility (in words) (physchem) | solubility (physchem; 25 °C, pH 7, aqueous buffer) | solubility (physchem; pH 10, aqueous buffer) | reduction of apoptotic neural death (apoptotic neural death)
O=CCCC(CCC(=O)O)(CCC(=O)O)NC(=O)CCC(CCC(=O)NC(CCC(=O)O)(CCC(=O)O)CCC(=O)O)(CCC(=O)NC(CCC(=O)O)(CCC(=O)O)CCC(=O)O)NC(=O)CCCOC(=O)C1(C(=O)OCCCC(=O)NC(CCC(=O)NC(CCC(=O)O)(CCC(=O)O)CCC(=O)O)(CCC(=O)NC(CCC(=O)O)(CCC(=O)O)CCC(=O)O)CCC(=O)NC(CCC(=O)O)(CCC(=O)O)CCC(=O)O)C2c3cc4c5c6c(cc7ccc8cc9c%10c%11c(cc(c%12c3c5c(c%12%11)c3c6c7c8c%103)C21)C9)C4 (stereo not shown) [compound 1, 18-cascade:methano-C60-fullerene[2]:(2-aza-7-oxa-3,8-dioxooctylidyne):(2-aza-3-oxopentylidyne):propanoic acid] | very readily soluble | ~34 mg/mL (≈ 13.7 mM) | ~250 mg/mL (≈ 100 mM) | –
C60[C(COOH)2]3 [C3-symmetrical derivative] | – | – | – | reduced apoptotic neural death
